We go through one compound from ChEMBL document CHEMBL1156458, “chi-Conotoxin and tricyclic antidepressant interactions at the norepinephrine transporter define a new transporter model” (J Biol Chem, 2007).

Structures are written as SMILES.

The test has as its target Sodium-dependent dopamine transporter (Homo sapiens, UniProt Q01959, F472L). Briefly: Inhibition of [3H]dopamine uptake at human DAT F472L mutant expressed in african green monkey COS1 cells after 48 hrs. The class given is cell-based, COS-1.

Sodium-dependent dopamine transporter, sequence (Q01959 whole entry F472L): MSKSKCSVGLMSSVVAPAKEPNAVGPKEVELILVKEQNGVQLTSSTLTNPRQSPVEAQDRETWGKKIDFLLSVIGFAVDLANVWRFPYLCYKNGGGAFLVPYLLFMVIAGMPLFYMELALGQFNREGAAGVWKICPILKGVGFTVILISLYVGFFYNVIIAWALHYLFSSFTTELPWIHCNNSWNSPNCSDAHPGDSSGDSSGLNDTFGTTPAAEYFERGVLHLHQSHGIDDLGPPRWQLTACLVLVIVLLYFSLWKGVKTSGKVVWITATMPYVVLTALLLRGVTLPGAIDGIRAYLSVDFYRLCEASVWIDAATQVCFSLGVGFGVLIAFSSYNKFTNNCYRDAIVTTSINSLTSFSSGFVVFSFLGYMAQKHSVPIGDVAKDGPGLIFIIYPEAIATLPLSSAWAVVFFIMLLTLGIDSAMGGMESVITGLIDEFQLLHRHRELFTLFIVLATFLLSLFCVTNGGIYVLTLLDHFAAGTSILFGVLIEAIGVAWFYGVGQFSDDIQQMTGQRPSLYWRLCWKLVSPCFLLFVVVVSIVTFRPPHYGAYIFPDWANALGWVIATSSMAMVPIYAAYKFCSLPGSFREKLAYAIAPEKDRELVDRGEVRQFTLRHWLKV

`CC(C)C[C@@H]1NC(=O)[C@H](CCCCN)NC(=O)[C@H](Cc2ccc(O)cc2)NC(=O)CNC(=O)[C@@H]2CSSC[C@H](NC1=O)C(=O)N[C@@H](Cc1cnc[nH]1)C(=O)N1C[C@H](O)C[C@H]1C(=O)N[C@H](C(=O)O)CSSC[C@H](NC(=O)[C@@H](NC(=O)CNC(=O)[C@@H](N)CC(N)=O)C(C)C)C(=O)N2` gave an IC50 of 200 µM.

As a reminder, the IC50 is the concentration needed to halve the response being measured.
